Assay results from BindingDB's records for doi:10.1016/j.ejmech.2018.11.076 (Shaoxing University, 2019).

Key:
Cyclin-C [1] = biological target: T1, Cyclin-C (Homo sapiens, UniProt P24863); test: Displacement of Kinase tracer 236 from recombinant full-length human N-terminal GST-fused CDK8 (1 to 464 residues)/cyclin C (1 to 283 residues) expressed in baculovirus expression system after 60 mins by TR-FRET assay
T1 sequence (P24863 whole entry): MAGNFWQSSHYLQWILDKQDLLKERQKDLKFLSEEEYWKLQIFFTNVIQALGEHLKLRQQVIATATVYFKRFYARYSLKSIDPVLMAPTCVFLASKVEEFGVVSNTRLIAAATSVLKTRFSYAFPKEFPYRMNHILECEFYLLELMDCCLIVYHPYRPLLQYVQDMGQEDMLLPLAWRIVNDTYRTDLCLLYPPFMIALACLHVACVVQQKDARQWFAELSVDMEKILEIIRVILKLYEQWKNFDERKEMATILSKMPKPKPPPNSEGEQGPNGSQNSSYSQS

Cyclin-C [2] = biological target: T1, Cyclin-C; test: Inhibition of recombinant full-length human His-tagged CDK8/cyclinC expressed in baculovirus expression system by Lantha screen assay

IC50 (Cyclin-C [1]) [nM]	IC50 (Cyclin-C [2]) [nM]	Compound
1.6		Cc1ncccc1Oc1sc(C(N)=O)c2c1-c1c(cnn1C)CC2
	500	CC1CCc2nc(N)c(C#N)c(-c3cccnc3)c2C1 (configuration not stated) [2-azanyl-6-methyl-4-pyridin-3-yl-5,6,7,8-tetrahydroquinoline-3-carbonitrile]
